Data published in US20230286919A1, “ISOQUINOLINE DERIVATIVES FOR USE IN THERAPY” (Vestlandets Innovasjonsselskap AS, priority 2020, published 2023).

Key:
[1] = tested on: DU145, PC3, EPT3M1-STAT3, and 22Rv1 cells; test: In vitro clonogenic assay; format: cell-based, human; conditions: DU145, PC3, EPT3M1-STAT3, 22Rv1; 2 weeks
Procedure: On the second day after seeding single cells, 323-1 and 323-2 were added at various concentrations, and cells were allowed to grow for 2 weeks to form colonies, then stained with 0.4% crystal violet (w/v).

[2] = tested on: STAT3; test: DARTS (drug affinity responsive target stability) assay in EPT3M1-STAT3 cell lysates; format: binding, human; conditions: 200 μM
Procedure: EPT3M1-STAT3 cells were lysed with cold M-PER buffer (Thermo Fisher Scientific, Pierce cat.78501) containing protease (Roche, Basel, Switzerland, cat. no. 11836153001) and phosphatase inhibitors (Pierce cat. no. 78420) and centrifugated (18,000×g for 10 min at 4° C.). Lysates were diluted to the same final volume and proteolysed in TNC buffer [50 mM Tris-HCl (pH 8.0), 50 mM NaCl, 10 mM CaCl2]. 200 μM 323-1 or 200 μM 323-2 or the same volume of DMSO were added and incubated for 1 hour at RT. Pronase solution (1.25 mg/ml, 1:100 stock solution) was diluted serially by mixing with 1×TNC buffer to create 1:300, 1:1000, 1:3000 and 1:10000 Pronase stock aliquots. Pronase was added into both DMSO and drug groups and incubated for 30 min at RT. Digestion was stopped by adding 4× loading buffer and heating to 90° C. for 10 min immediately prior to the Western blot assay according to Lomenick, et al. (Proc Natl Acad Sci USA, 2009; 106: 21984-9) and Lomenick wt al. (ACS Chem Biol. 2011; 6: 34-46). […]

[3] = target: T1, STAT3 dimerization (Homo sapiens, UniProt P40763); test: Co-immunoprecipitation of HA-STAT3 and FLAG-STAT3 in 293T cells; format: cell-based; conditions: 50 μM, 24 hours, compared with S3I-201 (200 μM)
T1 construct: expressed in transfected cells; host or cells: 293T cells
Procedure: 293T cells were collected in the medium and centrifuged at 800 g x 5 min, then washed with cold PBS twice before adding 500 μl Pierce™ IP Lysis Buffer (Thermofisher Scientific, 87787), containing protease and phosphatase inhibitor cocktail without DTT (Roche, 11836153001), into the cells. Cell lysates were passed several times through a 27^1/2-gauge needle to disrupt the nuclei. 1-2 mg extracts were added with pre-cleaned 50 μL slurry of Pierce™ […] Magnetic Agarose (Thermoscientific, A36797), then supernatant were collect with magnet and immunoprecipitated (IP) at RT on a rotator for 30 min. Beads were boiled at 95° C. for 5 min followed by adding the 100 μL of 1× Non-reducing Sample Buffer (Thermofisher Scientific, 39000) into beads. The supernatant was collected with a magnet and then added 5 μL of 1M DTT (Thermoscientific, P2325) into sample prior to proceeding the immunoblotting.
Nuclear translocation of the STAT3 dimers mediates the STAT3 transcriptional activity.

[4] = tested on: DU145 cells; test: Flow cytometric analysis of cell apoptosis; format: cell-based, human; conditions: 72 hrs
Procedure: The […] effect of compounds 323-1 and 323-2 was evaluated in DU145 cells.
Data are shown as representative results of three experiments.

[5] = tested on: STAT3 target genes (Cyclin D1, BCL-XL, MCL1, Survivin, PARP); test: Western blot of STAT3 target gene proteins; format: cell-based, human
Procedure: As reported, aberrant STAT3 regulates the expression of downstream target genes involved in anti-apoptosis (Bcl-2, Mcl-1, survivin, and Bcl-xL), cell cycle (cyclin D1 and c-Myc), angiogenesis (VEGF and HIF1α), invasion and metastasis (MMP-1, MMP-2, MMP-9) and the inhibition of host immune surveillance. To further identify the characterization of the properties of 323-1 and 323-2, DU145, EPT3-M1-STAT3 and LNCaP cells were treated with 323-1 and 323-2 followed by western blotting.
To obtain the results shown in FIG. 13, EPT3M1-STAT3 or LNCaP cells were treated with DMSO, 20 μM of compound 323-1, or 20 μM of compound 323-2 for 48 hrs, respectively. Lysates were analysed and loaded to western blotting.

[6] = tested on: phosphorylated STAT3 (Tyr705); test: Western blot, IL-6-induced phosphorylation of STAT3 (Tyr705) in LNCaP cells; format: cell-based, human; conditions: 20 μM, 24 hrs, 10 ng/ml IL-6 last 15 min
Procedure: To obtain the results shown in FIG. 9, LNCaP cells were treated with DMSO, 20 μM of compound 323-1 or 323-2 or 5 μM cryptotanshinone for 24 hrs before treatment with or without 10 ng/ml IL-6 for the last 15 min.

[7] = EPT3-M1-STAT3 and LNCaP cells, 20 μM, 48 hrs

T1 sequence (P40763 whole entry): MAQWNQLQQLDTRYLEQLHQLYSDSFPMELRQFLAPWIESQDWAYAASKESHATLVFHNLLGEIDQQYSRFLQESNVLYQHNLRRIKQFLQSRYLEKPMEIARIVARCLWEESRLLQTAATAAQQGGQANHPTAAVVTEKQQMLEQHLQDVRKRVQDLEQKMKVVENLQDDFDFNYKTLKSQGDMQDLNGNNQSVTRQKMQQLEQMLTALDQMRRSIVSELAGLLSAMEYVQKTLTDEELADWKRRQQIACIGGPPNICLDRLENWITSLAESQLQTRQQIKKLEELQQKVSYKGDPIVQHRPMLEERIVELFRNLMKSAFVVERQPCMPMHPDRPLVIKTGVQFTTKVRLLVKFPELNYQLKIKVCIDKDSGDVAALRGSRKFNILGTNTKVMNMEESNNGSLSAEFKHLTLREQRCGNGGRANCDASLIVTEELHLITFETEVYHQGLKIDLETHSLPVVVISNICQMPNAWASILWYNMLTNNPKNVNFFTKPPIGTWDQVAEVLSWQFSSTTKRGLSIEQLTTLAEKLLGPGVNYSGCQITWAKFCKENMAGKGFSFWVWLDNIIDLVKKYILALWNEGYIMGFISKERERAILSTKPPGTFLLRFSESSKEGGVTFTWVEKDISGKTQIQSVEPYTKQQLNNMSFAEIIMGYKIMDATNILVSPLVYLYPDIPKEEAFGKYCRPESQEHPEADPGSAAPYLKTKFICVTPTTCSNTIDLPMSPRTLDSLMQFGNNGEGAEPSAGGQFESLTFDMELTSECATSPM

In the case of `C[C@@H]1CCC(c2cc3c4c(cncc4c2)[C@@H](C)C3)=C1C=O` [323-2, (15S,2R)-Delavatine A], the Colony formation [1] was “Concentration-dependent inhibition of colony formation”, the “Digestion of non-target proteins STAT1, JAK2, Src, β-actin” value [2] was “unchanged” and the “Protection of STAT3 against pronase digestion” value [2] was “protection of the target protein STAT3”. For the same compound, the “Dimerization of STAT3 (HA-STAT3/FLAG-STAT3)” value [3] was “could disrupt the dimerization of STAT3”, the Induction of apoptosis [4] was “appeared to induce apoptosis” and the “Induction of apoptosis compared with cryptotanshinone” value [4] was “much weaker than by cryptotanshinone”. The “Protein level of STAT3 target gene MCL1” value [5, 7] was “repressed”, the “Protein level of Survivin or PARP” value [5, 7] was “but not Survivin or PARP” and the “Expression of Cyclin D1” value ([5]; LNCaP cells) was “down-regulated dose-dependently”. The “IL-6-induced phosphorylation of STAT3 on Tyr705” value [6] was “inhibited”.
